These results are taken from publication PMC4220862 (Inorganic Chemistry, 2014).

For assay [1], the target named is T1, amyloid β peptide (Aβ40 fibrils) (Homo sapiens, UniProt P05067). The experiment in a line: direct fluorescence titration of Aβ[…] fibrils, one-site fit. In kind it is binding.
Assay [2] addresses T1, amyloid β peptide (Aβ40 fibrils). The experiment in a line: ThT fluorescence competition assay with Aβ[…] fibrils. The format is binding.

T1 sequence (P05067 672-711): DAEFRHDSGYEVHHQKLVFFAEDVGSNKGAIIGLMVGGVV

For `CCN(CC)c1ccc(-c2nc3ccccc3s2)c(O)c1` [L1, 2-[2-hydroxy-4-(diethylamino)phenyl]benzothiazole], in assay [1], the affinity, expressed as Kd, was 4700 ± 300 nM.
For `COc1cccc(-c2nc3ccccc3s2)c1O` [L2, 2-(2-hydroxy-3-methoxyphenyl)benzothiazole], the affinity in assay [2], expressed as Ki, was 15 ± 10 nM.
